Data published in ChEMBL document CHEMBL1201862, “PubChem BioAssay data set” (2004).
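These data come from cells grown in 96-well plates and exposed to compound for 48 hours at five concentrations. At the GI50, growth is halved.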 Calls of active or inactive are those of the source. Rule as the data show it: active = GI50 up to about 1.1 µM and inactive = higher.

Key:
Test in all cases: growth of human tumour cells (NCI), 48 h
[1] = system: 786-0
[2] = system: ACHN
[3] = system: CAKI-1
[4] = system: EKVX
[5] = system: HL-60
[6] = system: HOP-62
[7] = system: K562
[8] = system: LOX IMVI
[9] = system: SF-539
[10] = system: SK-MEL-28
[11] = system: SK-MEL-2
[12] = system: SN12C
[13] = system: SR
[14] = system: TK-10
[15] = system: DU-145
[16] = system: MCF7
[17] = system: MDA-MB-231
[18] = system: NCI/ADR-RES
[19] = system: PC-3

SMILES | GI50 [1] | GI50 [2] | GI50 [3] | GI50 [4] | GI50 [5] | GI50 [6] | GI50 [7] | GI50 [8] | GI50 [9] | GI50 [10] | GI50 [11] | GI50 [12] | GI50 [13] | GI50 [14] | GI50 [15] | GI50 [16] | GI50 [17] | GI50 [18] | GI50 [19]
COc1cc(Nc2nc3cc(C(F)(F)F)ccc3nc2-c2ccccc2)cc(OC)c1OC | 40.7 µM (inactive) | 65.5 µM (inactive) | < 0.01 µM (active) | 24.3 µM (inactive) | 39.3 µM (inactive) | 18.9 µM (inactive) | > 100 µM (inactive) | > 100 µM (inactive) | 54.8 µM (inactive) | 49.7 µM (inactive) | > 100 µM (inactive) | > 100 µM (inactive) | > 100 µM (inactive) | 30.5 µM (inactive) |  |  |  |  | 
CCN1C(=O)/C(=C\c2coc3ccccc3c2=O)SC1=S | 73.8 µM (inactive) | > 100 µM (inactive) | > 100 µM (inactive) | > 100 µM (inactive) | > 100 µM (inactive) | 61.9 µM (inactive) | > 100 µM (inactive) | 42.1 µM (inactive) | 32.8 µM (inactive) | > 100 µM (inactive) | > 100 µM (inactive) | > 100 µM (inactive) | 36.6 µM (inactive) | > 100 µM (inactive) |  |  |  |  | 
O=C(Nc1nc(C23CC4CC(CC(C4)C2)C3)cs1)c1cc2cc(Cl)ccc2oc1=O | > 100 µM (inactive) | > 100 µM (inactive) | > 100 µM (inactive) | > 100 µM (inactive) | > 100 µM (inactive) | > 100 µM (inactive) | > 100 µM (inactive) | > 100 µM (inactive) | > 100 µM (inactive) | > 100 µM (inactive) |  | > 100 µM (inactive) | > 100 µM (inactive) | > 100 µM (inactive) | > 100 µM (inactive) | > 100 µM (inactive) | > 100 µM (inactive) | > 100 µM (inactive) | > 100 µM (inactive)
COc1ccccc1C(C1=C(O)COC1=O)c1cc2c(cc1OC(C)=O)OCO2 (stereo unspecified) | > 100 µM (inactive) | > 100 µM (inactive) | > 100 µM (inactive) | > 100 µM (inactive) | > 100 µM (inactive) | > 100 µM (inactive) | > 100 µM (inactive) | > 100 µM (inactive) | > 100 µM (inactive) | > 100 µM (inactive) |  | > 100 µM (inactive) | > 100 µM (inactive) | > 100 µM (inactive) | > 100 µM (inactive) | > 100 µM (inactive) | > 100 µM (inactive) | > 100 µM (inactive) | > 100 µM (inactive)
CCCCCCCCC(=O)CCCCCCCCC(=O)O | 22.9 µM (inactive) | 25.3 µM (inactive) | 34.5 µM (inactive) | 28.4 µM (inactive) | 4.09 µM (inactive) | 26.9 µM (inactive) | 18.9 µM (inactive) | 14.8 µM (inactive) | 19.7 µM (inactive) | 36.1 µM (inactive) | 36.1 µM (inactive) | 25.6 µM (inactive) | 16.2 µM (inactive) | 33.3 µM (inactive) |  |  |  |  | 
COC1C(O)C(C)OC(O[C@H]2CC[C@@]3(C)C(CC[C@@H]4[C@@H]3CC[C@]3(C)[C@@H](C(C)OC5OC(CO)C(O)C(O)C5O)CC[C@]43O)C2)C1O (stereo partly specified) | > 25 µM (inactive) | > 25 µM (inactive) | > 25 µM (inactive) | > 25 µM (inactive) | > 25 µM (inactive) | > 25 µM (inactive) | > 25 µM (inactive) | > 25 µM (inactive) | > 25 µM (inactive) | > 25 µM (inactive) | > 25 µM (inactive) | > 25 µM (inactive) | > 25 µM (inactive) | > 25 µM (inactive) |  | > 25 µM (inactive) | > 25 µM (inactive) | > 25 µM (inactive) | > 25 µM (inactive)
